≈ marks a conversion by molar mass, not a printed value.

Holding throughout (type): functional
In experiment [1] the test system is Escherichia coli. Nature of the experiment: Antibacterial activity against Escherichia coli DSM 30083 after 16 hrs by microdilution assay. To be noted: DSM 30083 = JCM 1649 = ATCC 11775, 16 h.
In experiment [2] the test system is Acinetobacter baumannii. Nature of the experiment: Antibacterial activity against Acinetobacter baumannii DSM 30007 after 16 hrs by microdilution assay. The following applies: DSM 30007, 16 h.
In experiment [3] the test system is Bacillus subtilis. Nature of the experiment: Antibacterial activity against Bacillus subtilis 168 after 16 hrs by microdilution assay. The following applies: subsp. subtilis str. 168, 16 h.
For experiment [4], the system named is Staphylococcus aureus. Nature of the experiment: Antibacterial activity against Staphylococcus aureus DSM 20231 after 16 hrs by microdilution assay. The following applies: DSM 20231, 16 h.
Experiment [5] relates to Staphylococcus aureus. Nature of the experiment: Antibacterial activity against methicillin-resistant Staphylococcus aureus ATCC 43300 after 16 hrs by microdilution assay. To be noted: ATCC 43300, 16 h.

In the case of `CCc1c(Cn2cc(CN[C@H](Cc3c[nH]c4ccccc34)C(=O)N[C@@H](CCCNC(=N)N)C(=O)N[C@H](Cc3c[nH]c4ccccc34)C(=O)O)nn2)c(CC)c(Cn2cc(CN[C@H](Cc3c[nH]c4ccccc34)C(=O)N[C@@H](CCCNC(=N)N)C(=O)N[C@H](Cc3c[nH]c4ccccc34)C(=O)O)nn2)c(CC)c1Cn1cc(CN[C@H](Cc2c[nH]c3ccccc23)C(=O)N[C@@H](CCCNC(=N)N)C(=O)N[C@H](Cc2c[nH]c3ccccc23)C(=O)O)nn1` (stereo in doubt), the MIC in experiment [1] came to 16 µM (≈ 33.3 µg/mL); in experiment [2], 32 µM (≈ 66.6 µg/mL); in experiment [3], 1 µM (≈ 2.08 µg/mL); in experiment [4], 4 µM (≈ 8.33 µg/mL); in experiment [5] it was 2 µM (≈ 4.16 µg/mL).
For the compound `N=C(N)NCCC[C@H](NC(=O)[C@H](Cc1c[nH]c2ccccc12)NC(=O)[C@H](CCCNC(=N)N)NCc1cn(Cc2cc(Cn3cc(CN[C@@H](CCCNC(=N)N)C(=O)N[C@@H](Cc4c[nH]c5ccccc45)C(=O)N[C@@H](CCCNC(=N)N)C(=O)O)nn3)cc(Cn3cc(CN[C@@H](CCCNC(=N)N)C(=O)N[C@@H](Cc4c[nH]c5ccccc45)C(=O)N[C@@H](CCCNC(=N)N)C(=O)O)nn3)c2)nn1)C(=O)O`, the MIC in experiment [1] was determined as 13 µM (≈ 24.8 µg/mL); in experiment [2] it was 54 µM (≈ 103 µg/mL); in experiment [3], 6 µM (≈ 11.4 µg/mL); in experiment [4], 27 µM (≈ 51.5 µg/mL); in experiment [5], 13 µM (≈ 24.8 µg/mL).
In the case of `N=C(N)NCCC[C@H](NCc1cn(Cc2cc(Cn3cc(CN[C@@H](CCCNC(=N)N)C(=O)N[C@@H](Cc4c[nH]c5ccccc45)C(=O)O)nn3)cc(Cn3cc(CN[C@@H](CCCNC(=N)N)C(=O)N[C@@H](Cc4c[nH]c5ccccc45)C(=O)O)nn3)c2)nn1)C(=O)N[C@@H](Cc1c[nH]c2ccccc12)C(=O)O`, the MIC in experiment [1] amounted to 60 µM (≈ 86.3 µg/mL); in experiment [2] it was 30 µM (≈ 43.2 µg/mL); in experiment [3], 3.8 µM (≈ 5.47 µg/mL); in experiment [4] it was 30 µM (≈ 43.2 µg/mL); in experiment [5] it was 15 µM (≈ 21.6 µg/mL).
Consider `CCc1c(Cn2cc(CN[C@@H](Cc3c[nH]c4ccccc34)C(=O)N[C@@H](CCCNC(=N)N)C(=O)O)nn2)c(CC)c(Cn2cc(CN[C@@H](Cc3c[nH]c4ccccc34)C(=O)N[C@@H](CCCNC(=N)N)C(=O)O)nn2)c(CC)c1Cn1cc(CN[C@@H](Cc2c[nH]c3ccccc23)C(=O)N[C@@H](CCCNC(=N)N)C(=O)O)nn1`, for which the MIC in experiment [1] was 15 µM (≈ 22.8 µg/mL); in experiment [2], 15 µM (≈ 22.8 µg/mL); in experiment [3], 2.2 µM (≈ 3.35 µg/mL); in experiment [4], 15 µM (≈ 22.8 µg/mL); in experiment [5], 7.3 µM (≈ 11.1 µg/mL).
Take `N=C(N)NCCC[C@H](NC(=O)[C@@H](Cc1c[nH]c2ccccc12)NCc1cn(Cc2cc(Cn3cc(CN[C@H](Cc4c[nH]c5ccccc45)C(=O)N[C@@H](CCCNC(=N)N)C(=O)N[C@H](Cc4c[nH]c5ccccc45)C(=O)O)nn3)cc(Cn3cc(CN[C@H](Cc4c[nH]c5ccccc45)C(=O)N[C@@H](CCCNC(=N)N)C(=O)N[C@H](Cc4c[nH]c5ccccc45)C(=O)O)nn3)c2)nn1)C(=O)N[C@H](Cc1c[nH]c2ccccc12)C(=O)O` (stereo in doubt): the MIC in experiment [1] is 12 µM (≈ 24 µg/mL); in experiment [2], greater than 100 µM; in experiment [3], 3 µM (≈ 5.99 µg/mL); in experiment [4] it was greater than 100 µM; in experiment [5], 12 µM (≈ 24 µg/mL).
In the case of `N=C(N)NCCC[C@H](NC(=O)[C@H](Cc1c[nH]c2ccccc12)NCc1cn(Cc2cc(Cn3cc(CN[C@@H](Cc4c[nH]c5ccccc45)C(=O)N[C@@H](CCCNC(=N)N)C(=O)O)nn3)cc(Cn3cc(CN[C@@H](Cc4c[nH]c5ccccc45)C(=O)N[C@@H](CCCNC(=N)N)C(=O)O)nn3)c2)nn1)C(=O)O`, the MIC in experiment [1] was 60 µM (≈ 86.3 µg/mL); in experiment [2], 60 µM (≈ 86.3 µg/mL); in experiment [3], 7.6 µM (≈ 10.9 µg/mL); in experiment [4], 30 µM (≈ 43.2 µg/mL); in experiment [5], 15 µM (≈ 21.6 µg/mL).
H-RWRWRW-NH2: the MIC in experiment [1] was determined as 21 µM; in experiment [2], 21 µM; in experiment [3], 1.3 µM; in experiment [4], 11 µM; in experiment [5], 5.3 µM.
With `CCc1c(Cn2cc(CN[C@@H](CCCNC(=N)N)C(=O)N[C@@H](Cc3c[nH]c4ccccc34)C(=O)O)nn2)c(CC)c(Cn2cc(CN[C@@H](CCCNC(=N)N)C(=O)N[C@@H](Cc3c[nH]c4ccccc34)C(=O)O)nn2)c(CC)c1Cn1cc(CN[C@@H](CCCNC(=N)N)C(=O)N[C@@H](Cc2c[nH]c3ccccc23)C(=O)O)nn1`, the MIC in experiment [1] came to 60 µM (≈ 91.4 µg/mL); in experiment [2], 15 µM (≈ 22.8 µg/mL); in experiment [3] it was 1.8 µM (≈ 2.74 µg/mL); in experiment [4] it was 7.3 µM (≈ 11.1 µg/mL); in experiment [5], 7.3 µM (≈ 11.1 µg/mL).
Consider `N=C(N)NCCC[C@H](NC(=O)[C@H](Cc1c[nH]c2ccccc12)NC(=O)[C@@H](N)CCCNC(=N)N)C(=O)NCc1cn(Cc2ccccc2)nn1`, for which the MIC in experiment [1] was greater than 100 µM; in experiment [2], greater than 100 µM; in experiment [3] it was 35 µM (≈ 24 µg/mL); in experiment [4], greater than 100 µM; in experiment [5], 70 µM (≈ 48.1 µg/mL).
With `CCc1c(Cn2cc(CN[C@@H](CCCNC(=N)N)C(=O)N[C@@H](Cc3c[nH]c4ccccc34)C(=O)N[C@@H](CCCNC(=N)N)C(=O)O)nn2)c(CC)c(Cn2cc(CN[C@@H](CCCNC(=N)N)C(=O)N[C@@H](Cc3c[nH]c4ccccc34)C(=O)N[C@@H](CCCNC(=N)N)C(=O)O)nn2)c(CC)c1Cn1cc(CN[C@@H](CCCNC(=N)N)C(=O)N[C@@H](Cc2c[nH]c3ccccc23)C(=O)N[C@@H](CCCNC(=N)N)C(=O)O)nn1`, the minimal inhibitory concentration (MIC) is 13 µM (≈ 25.9 µg/mL) in experiment [1]; 26 µM (≈ 51.8 µg/mL) in experiment [2]; 3 µM (≈ 5.97 µg/mL) in experiment [3]; 13 µM (≈ 25.9 µg/mL) in experiment [4]; 13 µM (≈ 25.9 µg/mL) in experiment [5].
With `O=C(O)c1cn(C2CC2)c2cc(N3CCNCC3)c(F)cc2c1=O` [CIPROFLOXACIN], the MIC in experiment [1] was 1.5 µM (≈ 0.497 µg/mL); in experiment [2], 24 µM (≈ 7.95 µg/mL); in experiment [3] it was 24 µM (≈ 7.95 µg/mL); in experiment [4], 12 µM (≈ 3.98 µg/mL); in experiment [5] it was 12 µM (≈ 3.98 µg/mL).

(Values after ChEMBL document CHEMBL3734734, “Synthesis and antibacterial activity of trivalent ultrashort Arg-Trp-based antimicrobial peptides (AMPs)” (2015).)
